Here are results for 11 compounds from patent US20080214527A1, “Hiv Integrase Inhibitors” (priority 2005, published 2008).

Data set [1] relates to HIV-1 (IIIB strain) in MT-4 cells. In words: MT4 assay: inhibition of virus-induced CPE in MT-4 cells (MTT method). The settings on record: Human immunodeficiency virus 1, MT4, 96 h, 4-day incubation, read-out: anti-HIV activity EC50. The format is cell-based. Here is the method:
MT-4 cells (human T-cell line established by HTLV-I-induced transformation) were cultured in RPMI1640 medium supplemented with 10% fetal calf serum and kanamycin ([…]) in 5% CO2, humidified incubator at 37° C. The stock of HIV-1 was produced as follows. Molt-4 cells persistently infected with HIV-1 (IIIB strain) were cultured for 3 days and culture supernatant was collected. After removal of cells by centrifugation, the supernatant was passed through membrane filter ([…]) and stored as cell-free culture supernatant at −80° C. The infectivity of the stock virus was measured by MTT assay.
Anti-HIV activity in vitro of test compounds was assayed by inhibition of virus-induced CPE in MT-4 cells. MT-4 cells were suspended in culture medium at 2.5×10^5 cells/ml. The cell suspension ([…]) was added to each well of a 96 well flat-bottom microtiter plate containing serial 2-fold dilution of test compounds ([…]). HIV-1 ([…]) was added to each well (4-10 TCID50/well). After 4-day incubation at 37° C., the viability of MT-4 cells was determined by the MTT method using 3-(4,5-dimethylthiazol-2-yl)-2,5-diphenyltetrazolium bromide.
The absorbance (OD) of each well was measured at two wavelengths (560 and 690 nm). All data represent the average values of three wells. The concentration (conc.) achieving 50% protection of HIV replication (EC50) were calculated.

The target of another data set is HIV integrase (Human immunodeficiency virus type 1 group M subtype B, UniProt P04585). Briefly: Integrase inhibition assay (substrate DNA/target DNA microtiter plate, OD 405 nm). It is filed as biochemical. Here is the method:
The inhibitory activities of the present compounds against integrase were determined by the assay described below.
A substrate DNA solution (2 pmol/μl) and a target DNA solution (5 pmol/μl) were prepared by the same method as that described in Experimental Example 1 of WO 2004/024693. The DNA solutions were heated and then slowly cooled so that they were annealed with each complement. Each sequence of the substrate DNA and the target DNA is the same as described in the Experimental Example.
Streptavidin, obtained from Vector Laboratories, was dissolved in 0.1 M carbonate buffer (composition: 90 mM Na2CO3, 10 mM NaHCO3) at a concentration of 40 μg/ml. After coating each well of microtiter plates (obtained from NUNC) with 50 μl of the above solution at 4° C. over night, each well was washed twice with PBS (composition: […], 0.27 mM KCl, 0.43 mM Na2HPO4, 0.14 mM KH2PO4) and blocked with 300 μl of 1% skim milk in PBS for 30 min. Additionally, each well was washed twice with PBS and added with 50 μl of the substrate DNA solution (2 pmol/μl). The microtiter plates were kept at room temperature for 30 min. Then, each well was washed twice with PBS and once with H2O.
Subsequently, to the each well prepared above were added 51 μl of the reaction buffer prepared from 12 μl of the buffer (composition: 150 mM MOPS (pH 7.2), 75 mM MnCl2, 50 mM 2-mercaptoethanol, 25% glycerol, 500 μg/ml bovine serum albumin-fraction V) and 39 μl of the distilled water. Additionally, 9 μl of an integrase solution (30 pmol) was added thereto and the mixture was mixed well. To the well of negative control (NC) was added 9 μl of the integrase dilution buffer (composition: 20 mM MOPS (pH7.2), 400 mM potassium glutamate, 1 mM EDTA, 0.1% NP-40, 20% glycerol, 1 mM DTT, 4 M urea).
The microtiter plates were incubated at 30° C. for 1 hour. The reaction solution was removed and each well was washed three times with 250 μl of the wash buffer (composition: 150 mM MOPS (pH 7.2), 50 mM 2-mercaptoethanol, 25% glycerol, 500 μg/ml bovine serum albumin-fraction V).
Subsequently, to each well prepared above were added 53 μl of the reaction buffer prepared from 12 μl of the buffer (composition: 150 mM MOPS (pH 7.2), 75 mM MgCl2, 50 mM 2-mercaptoethanol, 25% glycerol, 500 μg/ml bovine serum albumin-fraction V) and 41 μl of the distilled water. Additionally, 6 μl of either a test compound in DMSO or DMSO for positive control (PC) was mixed well. After the microtiter plates were incubated at 30° C. for 30 minutes, 1 μl of target DNA (5 pmol/μl) was added to each well, and the reaction mixture was mixed well.
The microtiter plates were incubated at 30° C. for 10 minutes. The reaction solution was removed and each well was washed twice with PBS. Subsequently, each well of the microtiter plates was filled with 100 μl of anti-digoxigenin antibody labeled with alkaline phosphatase (Sheep Fab fragment: obtained from Boehringer) and incubated at 30° C. for 1 hour. Then, each well was washed twice with 0.05% Tween20 in PBS and once with PBS. Next, 150 μl of the Alkaline phosphatase reaction buffer (composition: 10 mM p-Nitrophenylphosphate (obtained from Vector Laboratories), 5 mM MgCl2, 100 mM NaCl, 100 mM Tris-HCl (pH 9.5)) was added to each well. The microtiter plates were incubated at 30° C. for 2 hours and the reaction was terminated by the addition of 50 μl of 1 N NaOH solution. The optical density (OD) at 405 nm of each well was measured and the percent inhibition was determined by the following expression.
The percent inhibition (%)=100[1−{(C abs.−NC abs.)/(PC abs.−NC abs.)}]
When the percent inhibition (%) is X % at a concentration of ×μg/ml and the percent inhibition (%) is Y % at a concentration of y μg/ml, one of which is more than 50% and the other is less than 50%, IC50 can be determined by the following expression.
IC50(μg/ml)=x−{(X−50)(x−y)/(X−Y)}

For orientation: EC50 means the concentration giving half of the maximal effect. One may read the melting point as the temperature, or range, at which the solid turns liquid. A word on the IC50: it is the concentration that gives 50% inhibition. The low end stands for higher potency, the high end for lower potency. `Cn1c(=O)c(C(=O)NCCO)c(O)c2ncc(Cc3ccc(F)cc3OCCN3CCOCC3)cc21` [Example 9, 7-[4-Fluoro-2-(2-morpholin-4-yl-ethoxy)-benzyl]-4-hydroxy-1-methyl-2-oxo-1,2-dihydro-[1,5]naphthyridine-3-carboxylic acid(2-hydroxy-ethyl)-amide] showed a melting point of 161 to 162 °C. In data set [1], the EC50 is 1 to 100 nM. Besides, the IC50 on HIV integrase was below 100 nM.

In the case of `Cn1c(=O)c(C(=O)NCCO)c(O)c2ncc(Cc3ccc(F)cc3CN3CCCCS3(=O)=O)cc21` [Example 33, 7-[2-(1,1-Dioxo-1lambda*6*-[1,2]thiazinan-2-ylmethyl)-4-fluoro-benzyl]-4-hydroxy-1-methyl-2-oxo-1,2-dihydro-[1,5]naphthyridine-3-carboxylic acid(2-hydroxy-ethyl)-amide], the EC50 in data set [1] was in the range of 1 to 100 nM. On HIV integrase, the IC50 was below 100 nM.

For the compound `COCC#Cc1cc(F)ccc1Cc1cnc2c(O)c(C(=O)NCCOC)c(=O)n(C)c2c1` [Example 15, 7-[4-Fluoro-2-(3-methoxy-prop-1-ynyl)-benzyl]-4-hydroxy-1-methyl-2-oxo-1,2-dihydro-[1,5]naphthyridine-3-carboxylic acid(2-methoxy-ethyl)-amide], the melting point lay in the range of 179 to 180 °C. Moreover, the EC50 in data set [1] lay in the range of 1 to 100 nM. The same compound showed an IC50 on HIV integrase below 100 nM.

As to `CC(=O)c1cc(F)ccc1Cc1cnc2c(O)c(C(=O)NCCO)c(=O)n(C)c2c1` [Example 17, 7-(2-Acetyl-4-fluoro-benzyl)-4-hydroxy-1-methyl-2-oxo-1,2-dihydro-[1,5]naphthyridine-3-carboxylic acid(2-hydroxy-ethyl)-amide], the melting point fell in the range of 212 to 215 °C. Moreover, in data set [1], the EC50 fell in the range of 1 to 100 nM. At HIV integrase, this compound yielded an IC50 below 100 nM.

For the compound `COCc1cc(F)ccc1Cc1cnc2c(O)c(C(=O)NCCO)c(=O)n(C)c2c1` [Example 25, 7-(4-Fluoro-2-methoxymethyl-benzyl)-4-hydroxy-1-methyl-2-oxo-1,2-dihydro-[1,5]naphthyridine-3-carboxylic acid(2-hydroxy-ethyl)-amide], the EC50 in data set [1] fell in the range of 1 to 100 nM. On HIV integrase, this compound registered an IC50 below 100 nM.

The compound `CCNC(=O)OCc1cc(F)ccc1Cc1cnc2c(O)c(C(=O)NCCOC)c(=O)n(C)c2c1` gave a melting point of 157 to 159 °C.

On to `CN(Cc1cc(F)ccc1Cc1cnc2c(O)c(C(=O)NCCO)c(=O)n(C)c2c1)S(C)(=O)=O` [Example 72, 7-{4-Fluoro-2-[(methanesulfonyl-methyl-amino)-methyl]-benzyl}-4-hydroxy-1-methyl-2-oxo-1,2-dihydro-[1,5]naphthyridine-3-carboxylic acid(2-hydroxy-ethyl)-amide], for which the EC50 in data set [1] was 1 to 100 nM. Further, the IC50 on HIV integrase was below 100 nM.

For `COCC#Cc1cc(F)ccc1Cc1cnc2c(O)c(C(=O)NCCO)c(=O)n(C)c2c1` [Example 13, 7-[4-Fluoro-2-(3-methoxy-prop-1-ynyl)-benzyl]-4-hydroxy-1-methyl-2-oxo-1,2-dihydro-[1,5]naphthyridine-3-carboxylic acid(2-hydroxy-ethyl)-amide], the EC50 in data set [1] is 1 to 100 nM. The concentration for half-maximal inhibition (IC50) on HIV integrase is below 100 nM.

In turn, `COCCNC(=O)c1c(O)c2ncc(Cc3ccc(F)cc3COC(N)=O)cc2n(C)c1=O` [Example 22, Carbamic acid 5-fluoro-2-[8-hydroxy-7-(2-methoxy-ethylcarbamoyl)-5-methyl-6-oxo-5,6-dihydro-[1,5]naphthyridin-3-ylmethyl]-benzyl ester] had a melting point of 180 to 183 °C. Besides, in data set [1], the EC50 was in the range of 1 to 100 nM. Moreover, the IC50 against HIV integrase is below 100 nM.

In the case of `Cn1c(=O)c(C(=O)NCCO)c(O)c2ncc(Cc3ccc(F)cc3COC(N)=O)cc21`, the melting point was 238 to 240 °C.

Take `CCNC(=O)OCc1cc(F)ccc1Cc1cnc2c(O)c(C(=O)NCCO)c(=O)n(C)c2c1`: the melting point lay within 180 to 182 °C.
